We go through 2 compounds from US9051240B2, “Substituted 2-[2-(phenyl) ethylamino] alkaneamide derivatives and their use as sodium and/or calcium channel modulators” (Newron Pharmaceuticals S.P.A., priority 2007, dated 2015).

A word on the IC50: it is the concentration that inhibits the measured activity by half.

One assay relates to TTXs sodium channels. Description: TTXs-sodium channel influx assay (fluorescence, ND7/23 cell line). It counts as cell-based, rat. The settings on record: ND7/23 cells, veratridine 100 μM; read-out: Na+ influx IC50. The protocol:
ND7/23 rat dorsal root ganglion-derived cell line endogenously expresses a mixed population of TTXs sodium channels. These cells lack of TTXr sodium channels as shown by the absence of their respective transcripts.
ND7/23 cells were grown in DMEM supplemented with 10% FBS and 1 mM sodium piruvate. The cells were seeded at 50,000 cells/well on 96 poly-L-lysine-coated plates and further incubated for 18-24 h before use.
The Membrane Potential Kit Assay (Molecular Devices), based on a negatively charged fluorescent dye able to monitor changes in membrane potential caused by the sodium influx due to the channel opening, was used for the assay.
Cells were incubated with the dye loading for 30 minutes at 25° C. Then, 100 nM of the toxin Anemonia sulcata (used as enhancer of the channel opener response) alone or in the presence of TTX (as reference standard) or test compound were added for further 15 minutes.
The fluorescence (excitation:530 nm, emission: 565 nm wavelength) was measured before and after (40-45 s) the automated injection of the sodium channel opener veratridine (100 μM) using a Victor plate reader (Perkin Elmer).
(§1) The inhibition curves were calculated from 5 concentrations, each in triplicate, and the IC50 determined using linear regression analysis.

Assay [1] concerns mice. As to the kind of experiment: Acetic acid-induced visceral pain model in mice. It counts as in vivo. The settings on record: 20 mg/Kg p.o. From the text: The acetic acid-induced visceral pain model is widely used in experimental research to produce abdominal contractions (Korster R et al., Fed. Pro. (1959) 18: 412; Friese N et al., Life Sci. (1997) 60: 625-634) The model consists of intraperitoneal (i.p.) injection of an irritant that induces a syndrome called ‘writhing’, which consists of contractions of the abdomen, twisting and turning of the trunk, arching of the back and extension of the hind limbs.
Animals and procedure: Male CD1 mice weighing 25-33 g were used. Each treated group was allowed 30 min to habituate to laboratory surroundings in individual polypropylene transparent boxes. The visceral pain was scored by counting the number of writhes for 10 min after i.p. injection of 0.6% acetic acid (10 ml/kg of body weight). The number of writhes after acetic acid administration were evaluated. Both complete body stretching (complete writhe) or partial stretching with a clear contracting of the abdomen (partial writhe) were counted.
Separate groups of 10 mice each were administered orally with vehicle (10 ml/kg), or different doses of the tested compound dissolved in vehicle (10 ml/kg), 5 min before acetic acid injection. Data are expressed as the mean number of writhes during the 10 min observation period.

Assay [2] deals with mice. Description: Amphetamine and chlordiazepoxide-induced hyperlocomotion in mice. It counts as in vivo. Conditions: 20.0 mg/Kg po. Here is the method: In this model, mice are treated with a mixture of d-amphetamine plus an anxiolytic dose of the benzodiazepine, chlordiazepoxide (Rushton R, Steinberg H. Combined effects of chlordiazepoxide and d-amphetamine on activity of rats in an unfamiliar environment. Nature 1966; 211:1312-3; R. Arban, G. Maraia, K. Brackenborough, L. Winyard, A. Wilson, P. Gerrard, C. Large. Evaluation of the effects of lamotrigine, valproate and carbamazepine in a rodent model of mania Behavioural Brain Research, 158: 123-132). The model has been claimed to mimic some aspects of mania in bipolar disorder. Importantly, the hyperactivity induced by the mixture of d-amphetamine and chlordiazepoxide could be prevented by prior administration of the established mood stabilizer, lithium, as well as other mood stabilizers drugs (e.g. magnesium valproate and carbamazepine). […]
Amphetamine (AMP) (2.5 mg/kg) plus chlordiazepoxide hydrochloride (CDZ) (3 mg/kg/ip) were administered to male Albino Swiss mice (25-32 g) in a volume of 10 ml/kg. The locomotor activity was recorded using Opto-M3 System (Columbus Instruments) which is multi-channel activity monitor. […] The locomotor activity (ambulation and total activity count) was evaluated for 30 min. […]
Statistical analysis: the data were evaluated by an analysis of variance (ANOVA), followed, when appropriate, by individual comparison with the control using Dunnett's test.

The subject of the next assay is L-type calcium channels. As to the kind of experiment: Calcium channel influx assay (fluorescence, AtT20 cell line). The settings on record: AtT20 cells, 100 mM KCl depolarization; read-out: Ca++ influx IC50. It counts as cell-based, mouse. Here is the method:
AtT20/D16v-F2 mouse pituitary tumour cell line preferentially expresses L-type calcium channels.
AtT20 cells were grown in DMEM with 10% of FBS, 4 mM glutamine. The cells were seeded at 200,000 cells/well on 96 poly-L-lysine-coated plates and further incubated for 18-24 h, before use.
The Ca^++ Kit Assay (Molecular Devices), which is based on a fluorescent calcium indicator to detect the calcium influx determined by depolarizing conditions, was used for the assay.
Cells were incubated with the calcium dye loading for 30 min at 37° C. Then, ω-conotoxin alone (1 μM) or in presence of nifedipine (as reference standard) or test compound were added for further 15 min.
The fluorescence (excitation: 485-emission: 535 nm wavelength) was measured before and after (30-40 sec) the automated injection of 100 mM KCl depolarizing solution using a Victor plate reader (Perkin Elmer).
as §1

Consider `CCCCOc1cccc(CCNCC(=O)N(C)C)c1.Cl` [2-[2-(3-Butoxyphenyl)-ethylamino]-N,N-dimethylacetamide hydrochloride], for which the IC50 in the assay with TTXs sodium channels was 1.5 µM. Further, the “number of writhes, significance vs. vehicle” value with mice [1] is given as “p<0.01 vs. vehicle”. In the assay on mice [2] (amphetamine 2.5 mg/kg i.p.), the “hyperactivity (ambulation over 30 min) induced by amphetamine alone” value was “reduced hyperactivity”. For the same compound, the “hyperactivity (ambulation over 30 min) induced by the mixture of amphetamine and chlordiazepoxide” value in the assay on mice [2] (amphetamine 2.5 mg/kg i.p. + chlordiazepoxide 3.0 mg/Kg ip) is “reduced hyperactivity”.

As for `C[C@H](NCc1ccc(OCc2ccccc2F)cc1)C(N)=O` [ralfinamide, (S)-(+)-2-[4-(2-fluorobenzyloxy)-benzylamino]-propanamide, reference compound], the values for the half-inhibitory concentration (IC50) with TTXs sodium channels and with L-type calcium channels were 9.5 µM and 26 µM, respectively.
